Patent US12630520B2, “Left-handed bicyclic morpholine and salt thereof, preparation method therefor, pharmaceutical composition, and use” (Institute of Materia Medica, Chinese Academy of Medical …, priority 2019, dated 2026)
“And” between values parts separate entries of the source, which are not always exact repeats. Equal values may be shown once. Read-outs that look alike come from different tables or passages of the source.

Columns and labels:
HepG2 cells [1] = assay: Carbon tetrachloride (CCl4)-induced in vitro hepatocyte injury, MTT; assay type: cell-based, human; conditions: HepG2, 10 μM; for Cell survival rate increase (%): 0.6% CCl4, versus model group
Procedure: (§1) Human liver cancer HepG2 cells well retained the characteristics of normal human hepatocytes, and they were grown in a DMEM medium containing 10% of fetal calf cerium (containing 100 U/mL of penicillin and 100 μg/mL of streptomycin) at the culturing conditions: 37° C., 5% of CO2 and a saturated humidity. A solution containing 0.25% of trypsin and 0.02% of EDTA was used for digestions and passages.
A MTT method was adopted. The HepG2 cells were inoculated in a 96-well cell culture plate, and after 24 hour cultures, the (+)IMM-H014, the (−)IMM-H014 and the (±)IMM-H014 were added in a non-toxic concentration whilst the carbon tetrachloride (CCl4, a final concentration of 0.6%) was added thereto. A Bicyclol positive control group, a solvent control group and a model group were set for the experiment. They acted on the cells continuously for 24 h. The culture solution was discarded, and to each well, 100 μL of a MTT (0.5 mg/mL) solution was added to culture for 4 hours. The MTT solution was discarded, and to each well, 150 μL of DMSO was added. The mixture was oscillated by a mixing oscillator, and the absorbance value was measured at a wavelength of 570 nm in a microplate reader. Cell survival rate (%)=(OD mean of administration group/OD mean of solvent control group)×100%.
(§2) The data were presented as a number mean±standard deviation (x±SD).

[2] = Pharmacokinetics in male SD rats after intragastric administration; assay type: in vivo, rat; conditions: 50 mg/kg intragastric, plasma
Procedure: Male SD rats were intragastrically administrated with the single enantiomer and racemate of IMM-H014, to compare their pharmacokinetic characteristics in rat bodies.
36 male SD rats were randomly divided into 6 groups, 6 animals in each group, including: (+)IMM-H014 intragastric administration group, (−)IMM-H014 intragastric administration group, and (±)IMM-H014 intragastric administration group. The administration dosage was 50 mg/kg. The rats were in fasting for 12 hours before the administrations and they could freely drink water.
100 mg of the IMM-H014 raw material drug was weighed and dissolved in 20 ml of purified water to prepare a 5 mg/ml administration solution, which was administrated (1 ml/100 g) in a single dose according to body weights.
At 0 hour before administrations, and at 5 min, 10 min, 30 min, 1 h, 2 h, 3 h, 5 h, 8 h, 12 h and 24 h after administrations, 250 μL of blood was taken from fundus plexus venosus, placed in an EP tube containing 10 μL of heparin sodium, and centrifuged at 4000 rpm for 10 min, and then the blood plasma was taken and stored in a refrigerator at −80° C.
50 μL of a plasma sample was precisely pipetted, and after 10 μL of an internal standard working solution was added thereto, they were placed in a 1.5 ml EP. They were whirled for 30 s and added with 500 μl of ethyl acetate. Then, they were whirled and vibrated for 5 min, and after being kept still for 10 min at 4° C., they were centrifuged for 5 min at 13000 r. The supernatant was taken and dried by blowing N2 at 30° C. The residue was re-dissolved by adding 100 μL of the initial mobile phase and centrifuged for 5 min at 13000 r, and the supernatant was transferred into a sampling bottle for measurements.
• Chromatographic column: Agilent ZORBAX SB-C18 (2.1×100 mm, 3.5 μm) • Mobile phase A: water (0.1% formic acid, 1 mM ammonium acetate); mobile • phase B: acetonitrile (0.1% formic acid) • Column temperature: at 35° C.; sampling amount: 3 μL • Elution: 0-2 min: 40%-53% of the B; 2-3 min: 53%-40% of the B 4.4 Mass Spectrometry Conditions
Ion source: ESI; detection mode: positive ions; temperature of drying gases: 300° C.; flow rate of drying gases: nitrogen gas, 11 L/min; atomizing gas: nitrogen, […]; capillary voltage: 4000 V; scanning mode: Multiple Reaction Measurement (MRM); ion pairs and related voltage parameters were shown below:
The original data obtained after samples were collected was treated by adopting MassHunter QQQ data processing software, to obtain blood-drug concentration data; then, the pharmacokinetic parameters were calculated through DAS software; finally, the t-test was performed by adopting SPSS software, to compare if there were statistical differences in drugs having the same optical activity but in different batches and in drugs having different optical activities, wherein the P<0.05 was considered to have significant differences. In the study, by intragastrically administrating 3 groups of SD rats with the single enantiomer and racemate of the IMM-H014 respectively, their pharmacokinetic characteristics in the rat bodies were studied.

HepG2 cells [3] = assay: Toxicity to HepG2 cells (cell survival rate, 48 h); assay type: cell-based, human; conditions: HepG2, 10 μM, not significantly toxic
Excerpt: The concentration was utilized to investigate the protective effects on APAP injured hepatocytes.
The concentration was utilized to investigate the protective effects on CCl4 injured hepatocytes.

HepG2 cells [4] = assay: 4-Acetamidophenol (APAP)-induced in vitro hepatocyte injury, MTT and LDH; assay type: cell-based, human; conditions: 8 mM APAP; for LDH level in the cell culture supernatant: HepG2, 10 uM, 24 h (the FIGURE); for Survival rates (%) / OD Mean ± SD / Cell survival rate increase (%): HepG2, 10 μM; for Survival rates (%) / OD Mean ± SD: 24 h, MTT; for OD Mean ± SD: 570 nm; for Cell survival rate increase (%): versus model group
Procedure: as §1, with “cell” for “cells”
A MTT method was adopted. The HepG2 cells were inoculated in a 96-well cell culture plate, and after 24 hour cultures, the (+)IMM-H014, the (−)IMM-H014 and the (±)IMM-H014 were added in a non-toxic concentration whilst the 4-acetamidophenol (APAP, a final concentration of 8 mM) was added thereto. A Bicyclol positive control group, a solvent control group and a model group were set for the experiment. The culture was continued for 24 h. 100 μL of the culture solution was taken and centrifuged, and a full-automatic biochemical analyzer in a LDH detection kit was utilized to detect the LDH level therein. The remaining culture solution was discarded, and to each well, 100 μL of a MTT (0.5 mg/mL) solution was added to continue the culture for 4 hours. The MTT solution was discarded, and to each well, 150 μL of DMSO was added. The mixture was oscillated by a mixing oscillator, and the absorbance value was measured at a wavelength of 570 nm in a microplate reader. Cell survival rate (%)=(OD mean of administration group/OD mean of solvent control group)×100%.
as §2

Row | SMILES | Survival rates (%) (HepG2 cells [1]; 0.6% CCl4, 24 h, MTT) | Cell survival rate increase (%) (HepG2 cells [1]) | AUC (0-t) [2] [ng·h/mL] | AUC (0-∞) [2] [ng·h/mL] | CLz/F [2] [mL/min/kg] | Cmax [2] [ng/mL] | Tmax [2] [min] | t1/2z [2] [min] | cell survival rate (HepG2 cells [3]) [%] | LDH level in the cell culture supernatant (HepG2 cells [4]) | Survival rates (%) (HepG2 cells [4]) | OD Mean ± SD (HepG2 cells [4]) | Cell survival rate increase (%) (HepG2 cells [4]) | OD Mean ± SD (HepG2 cells [1]; 0.6% CCl4, 24 h, MTT, 570 nm) | Cmax ([2]; male, SD, rat, po, 50 mg/kg, read-out: Cmax) [ng/mL] | Tmax ([2]; male, SD, rat, po, 50 mg/kg, read-out: Tmax) [min]
1 | COC(=O)c1cc(OC)c2c(c1-c1c(CN3CCOCC3)cc(OC)c3c1OCO3)OCO2 (racemic) [(±)IMM-H014] | 92.09 | 18.74 | 5242 ± 3447 | 5268 ± 3432 | 233 ± 155 | 3324 ± 2307 | 12.5 ± 9 | 72.36 ± 16.2 | 90 | could reduce the LDH levels | 50.63 | 0.453 ± 0.032 | 32.1% |  |  | 
2 | COC(=O)c1cc(OC)c2c(c1-c1c(CN3CCOCC3)cc(OC)c3c1OCO3)OCO2 [(+)IMM-H014] | 87.32 | 12.59 | 2876 ± 1978 | 2877 ± 1977 | 417 ± 262 |  |  | 59 ± 15.6 | 90 | could reduce the LDH levels | 54.58 | 0.489 ± 0.098 | 41.4% and 42.4% | 0.799 ± 0.014 | 2280 ± 2000 | 20 ± 11.4
3 | COC(=O)c1cc(OC)c2c(c1-c1c(CN3CCOCC3)cc(OC)c3c1OCO3)OCO2 [(−)IMM-H014] | 104.44 | 34.66 | 5866 ± 2979 | 5892 ± 3005 | 178 ± 103 | 3280 ± 1579 | 18 ± 10.8 | 74.88 ± 19.8 | 90 | could reduce the LDH levels | 67.01 | 0.600 ± 0.054^###& | 74.8% |  |  | 
